The values below come from patent US4232035A, “Carbamate pesticidal compounds compositions and methods of use” (priority 1975, dated 1980).

Holding throughout (assay type): in vivo
Assay [1] relates to root-knot nematode (Meloidogyne incognita var. acrita). Put plainly: Nematode Test. Set-up: key: 1: severe galling; equal to untreated control; 2: moderate galling; 3: light galling; 4: very light galling; 5: no galling. The conditions noted are these: 10 ml of 500 parts per million formulation per jar of soil; cucumber indicator crop, approximately three weeks. The procedure: (§1) Suspensions of the test compounds were prepared by dissolving one gram of compound in 50 milliliters of acetone in which had been dissolved 0.1 gram (10 percent of the weight of compound) of an alkylphenoxy polyethoxyethanol surfactant, as an emulsifying or dispersing agent. The resulting solution was mixed into 150 milliliters of water to give roughly 200 milliliters of a suspension containing the compound in finely divided form. The thus-prepared stock suspension contained 0.5 percent by weight of compound. The test concentrations in parts per million by weight employed in the tests described hereinbelow were obtained by appropriate dilutions of the stock suspension with water. The test procedures were as follows:
Infective migratory larvae of the root-knot nematode, (Meloidogyne incognita var. acrita) were reared in the greenhouse on roots of Rutgers variety tomato plant. Infected tomato plants were removed from the culture and the roots were chopped very finely. A small amount of inoculum from the roots was added to pint Mason jars containing approximately 180 cc of soil. The jars containing the inoculum and soil were capped and incubated for one week at room temperature. During this period eggs of the nematode hatched and the larvae forms migrated into the soil.
The test compounds were formulated by diluting the stock suspension with water to give a suspension containing 500 parts of test compound per million parts of final formulation. 10 milliliters of the test formulation was added to each of two jars for each dosage treated. As a control 10 milliliters of a water-acetone-emulsifier solution containing no test compound was also added to jars containing nematode larvae. The jars were capped and the contents thoroughly mixed on a kale mill for five minutes. The jars remained capped at room temperature for a period of 48 hours and the contents were then transferred to 3 inch pots. Subsequently, the pots were seeded to cucumber as an indicator crop and placed in the green house where they were cared for in the normal fashion for growing potted cucumber for approximately three weeks. These cucumber plants were then removed from the pots, the soil washed from the roots and the amount of galling visually rated.

Assay [2] has as its system house flies (Musca domestica, L.). Put plainly: Fly Bait Test. Further details: key: A: excellent control; B: partial control; C: no control. The conditions noted are these: 500 parts per million bait in sugar solution; twenty four hours. The procedure:
as §1
Four to six day old adult house flies (Musca domestica, L.) reared according to the specifications of the Chemical Specialties Manufacturing Association (Blue Book, McNair-Dorland Co., N.Y. 1954; pages 243-244, 261) under controlled conditions of 80°±5° F. and 50±5 percent relative humidity, were the test insects. The flies were immobilized by anesthetizing with carbon dioxide and twenty five immobilized individuals, males and females, were transferred to a cage consisting of a standard food strainer about five inches in diameter which was inverted over a wrapping-paper-covered surface. The test compounds were formulated by diluting the stock suspension with a 10 percent (by weight) sugar solution to give a suspension containing 500 parts of test compound per million parts of final formulation, by weight. Ten milliliters of the test formulation were added to a souffle cup containing a one-inch square of an absorbent cotton pad. This bait cup was introduced and centered on the blotting paper under the food strainer prior to admitting the anesthetized flies. The caged flies were allowed to feed on the bait for twenty four hours, at a temperature of 80°±5° F. and the relative humidity of 50±5 percent.

Assay [3] has as its system Mexican bean beetle (Epilachna varivestis, Muls.). Put plainly: Mexican Bean Beetle Leaf Spray Test. The settings on record: 500 parts per million leaf spray; fourth instar larvae; three days. Further details: key: A: excellent control; B: partial control; C: no control. The procedure:
as §1
Fourth instar larvae of the Mexican bean beetle (Epilachna varivestis, Muls.), reared on Tendergreen bean plants at a temperature of 80°±5° F. and 50±5 percent relative humidity, were the test insects.
The test compounds were formulated by diluting the stock suspension with water to give a suspension containing 500 parts of test compound per million parts of final formulation. Potted Tendergreen bean plants of standard height and age were placed on a revolving turntable and sprayed with 100-110 milliliters of test compound formulation by use of a DeVilbiss spray gun set at 10 psig air pressure. This application, which lasted 25 seconds, was sufficient to wet plants to run-off. As a control, 100-110 milliliters of a water-acetone-emulsifier solution containing no test compound were also sprayed on infested plants. When dry, the paired leaves were separated and each was placed in a 9 centimeter Petri dish lined with moistened filter paper. Five randomly selected larvae were introduced into each dish, and the dishes were closed. The closed dishes were labeled and held at a temperature of 80°±5° F. for three days. Although the larvae could easily consume the leaf within 24 to 48 hours, no more food was added. Larvae which were unable to move the length of the body, even upon stimulation, were considered dead.

Assay [4] relates to southern armyworm (Prodenia eridania, (Cram.)). As to the kind of experiment: Southern Armyworm Leaf Spray Test. Set-up: key: A: excellent control; B: partial control; C: no control. The settings on record: 500 parts per million leaf spray; three days. The procedure: as §1
Larvae of the southern armyworm (Prodenia eridania, (Cram.)), reared on Tendergreen bean plants at a temperature of 80°±5° F. and a relative humidity of 50±5 percent, constituted the test insects.
The test compounds were formulated by diluting the stock suspension with water to give a suspension containing 500 parts of test compound per million parts of final formulation. Potted Tendergreen bean plants of standard height and age were placed on a revolving turntable and sprayed with 100-110 milliliters of test compound formulation by use of a DeVilbiss spray gun set at 10 psig air pressure. This application, which lasted 25 seconds, was sufficient to wet plants to run-off. As a control, 100-110 milliliters of a water-acetone-emulsifier solution containing no test compound were also sprayed on infested plants. When dry, the paired leaves were separated and each one was placed in a 9 centimeter Petri dish lined with moistened filter paper. Five randomly selected larvae were introduced into each dish and the dishes were closed. The closed dishes were labeled and held at 80°-85° F. for three days. Although the larvae could easily consume the whole leaf within twenty-four hours, no more food was added. Larvae which were unable to move the length of the body, even upon stimulation by prodding, were considered dead. Percent mortality was recorded for various concentration levels.

The subject of assay [5] is bean aphid (Aphis fabae Scop.). Put plainly: Bean Aphid Foliage Spray Test. Set-up: key: A: excellent control; B: partial control; C: no control. The settings on record: 500 parts per million foliage spray; 24 hour holding period. How it is done:
as §1
Adults and nymphal stages of the bean aphid (Aphis fabae Scop.) reared on potted dwarf nasturtium plants at 65°-70° F. and 50-70 percent relative humidity, constituted the test insects. For testing purposes, the number of aphids per pot was standardized to 100-150 by trimming plants containing excess aphids.
The test compounds were formulated by diluting the stock suspension with water to give a suspension containing 500 parts of test compound per million parts of final formulation.
The potted plants (one pot per compound tested) infested with 100-150 aphids, were placed on a revolving turntable and sprayed with 100-110 milliliters of test compound formulation by use of a DeVilbiss spray gun set at 40 psig. air pressure. This application, which lasted 25 seconds, was sufficient to wet the plants to run-off. As a control, 100-110 milliliters of a water-acetone-emulsifier solution containing no test compound were also sprayed on infested plants. After spraying, the pots were placed on their sides on a sheet of white standard mimeograph paper which had been previously ruled to facilitate counting. Temperature and humidity in the test room during the 24 hour holding period were 65°-70° F. and 50-70 percent, respectively. Aphids which fell onto the paper and were unable to remain standing after being uprighted were considered dead. Aphids remaining on the plants were observed closely for movement and those which were unable to move the length of the body upon stimulation by prodding were considered dead. Percent mortality was recorded for various concentration levels.

In assay [6] the test system is two-spotted mite (Tetranychus urticae Koch). Put plainly: Mite Foliage Spray Test. Set-up: key: A: excellent control; B: partial control; C: no control. The conditions noted are these: 500 parts per million foliage spray; six days. How it is done:
as §1
Adults and nymphal stages of the two-spotted mite (Tetranychus urticae Koch), reared on Tendergreen bean plants at 80±5 percent relative humidity, were the test organisms. Infested leaves from a stock culture were placed on the primary leaves of two bean plants six to eight inches in height, growing in a two-and-a-half inch clay pot. 150-200 Mites, a sufficient number for testing, transferred from the excised leaves to the fresh plants in a period of twenty four hours. Following the twenty four hour transfer period, the excised leaves were removed from the infested plants. The test compounds were formulated by diluting the stock suspension with water to give a suspension containing 500 parts of test compound per million parts of final formulation. The potted plants (one pot per compound) were placed on a revolving turntable and sprayed with 100-110 milliliters of test compound formulation by use of a DeVilbiss spray gun set at 40 psig. air pressure. This application, which lasted 25 seconds, was sufficient to wet the plants to run-off. As a control, 100-110 milliliters of a water solution containing acetone and emulsifier in the same concentrations as the test compound formulation, but containing no test compound, were also sprayed on infested plants. The sprayed plants were held at 80±5 percent relative humidity for six days, after which a mortality count of motile forms was made. Microscopic examination for motile forms was made on the leaves of the test plants. Any individual which was capable of locomotion upon prodding was considered living.

Regarding `CCCCSSN(C)C(=O)ON=C1SC(C)(C)C(=O)N1C`, the “Nematodes, nematocidal toxicity rating (galling)” value (“Nematodes … (galling)” for short) in assay [1] was determined as 5. For the same molecule, in assay [2], the “H. Fly, pesticidal activity rating” value is given as “A”. Also, in assay [3], the “M. Bean Beetle, pesticidal activity rating” value (“M. Bean Beetle” below) is “A”. Besides, the “S. Armyworm, pesticidal activity rating” value in assay [4] is listed as “A”. Further, the “Aphid, pesticidal activity rating” value in assay [5] was “A”. Moreover, in assay [6], the “Mite, pesticidal activity rating” value is listed as “A”.

For `CN(SSC(C)(C)C)C(=O)ON=C1CSCCS1`, the “Nematodes … (galling)” value in assay [1] was 1. Further, the “H. Fly, pesticidal activity rating” value in assay [2] is “A”. Moreover, the “M. Bean Beetle” value in assay [3] was “A”. Further, the “S. Armyworm, pesticidal activity rating” value in assay [4] was “A”. The “Aphid, pesticidal activity rating” value in assay [5] is reported as “A”. The “Mite, pesticidal activity rating” value in assay [6] is reported as “A”.

With `Cc1ccc(SSN(C)C(=O)ON=C2SC(C)(C)C(=O)N2C)cc1`, the “Nematodes … (galling)” value in assay [1] worked out at 1. Moreover, the “H. Fly, pesticidal activity rating” value in assay [2] is recorded as “C”. Besides, in assay [3], the “M. Bean Beetle” value is recorded as “A”. Further, the “S. Armyworm, pesticidal activity rating” value in assay [4] is given as “A”. Moreover, the “Aphid, pesticidal activity rating” value in assay [5] is “C”. The “Mite, pesticidal activity rating” value in assay [6] is “C”.

With `CN(SSc1ccccc1)C(=O)ON=C1SC(C)(C)C(=O)N1C`, the “Nematodes … (galling)” value in assay [1] is recorded as 1. In addition, the “H. Fly, pesticidal activity rating” value in assay [2] was “B”. In addition, in assay [3], the “M. Bean Beetle” value is given as “A”. In addition, the “S. Armyworm, pesticidal activity rating” value in assay [4] is recorded as “A”. Further, in assay [5], the “Aphid, pesticidal activity rating” value is “A”. Moreover, in assay [6], the “Mite, pesticidal activity rating” value is “C”.

For the molecule `CC(C)SSN(C)C(=O)ON=C1SCOC1C` (stereo not drawn), the “Nematodes … (galling)” value in assay [1] amounted to 1. Also, the “H. Fly, pesticidal activity rating” value in assay [2] is reported as “A”. For the same molecule, the “M. Bean Beetle” value in assay [3] is given as “A”. The “S. Armyworm, pesticidal activity rating” value in assay [4] was “A”. Moreover, the “Aphid, pesticidal activity rating” value in assay [5] was “A”. Besides, the “Mite, pesticidal activity rating” value in assay [6] is “A”.

For the molecule `CSSN(C)C(=O)ON=C1SCOC1C` (stereo not drawn), in assay [1], the “Nematodes … (galling)” value turned out to be 1. The “H. Fly, pesticidal activity rating” value in assay [2] is “A”. For the same molecule, the “M. Bean Beetle” value in assay [3] is “A”. In assay [4], the “S. Armyworm, pesticidal activity rating” value is given as “A”. The “Aphid, pesticidal activity rating” value in assay [5] is reported as “A”. Besides, in assay [6], the “Mite, pesticidal activity rating” value is “A”.

Turning to `CN(SSc1ccc(C(C)(C)C)cc1)C(=O)ON=C1CSCCS1`, in assay [1], the “Nematodes … (galling)” value was 4. For the same molecule, the “H. Fly, pesticidal activity rating” value in assay [2] was “A”. For the same molecule, the “M. Bean Beetle” value in assay [3] is recorded as “A”. Besides, the “S. Armyworm, pesticidal activity rating” value in assay [4] is “A”. For the same molecule, in assay [5], the “Aphid, pesticidal activity rating” value is on record as “A”. In assay [6], the “Mite, pesticidal activity rating” value is recorded as “A”.

In the case of `CN(SSc1ccc(Cl)cc1)C(=O)ON=C1SC(C)(C)C(=O)N1C`, in assay [1], the “Nematodes … (galling)” value was determined as 1. In addition, the “H. Fly, pesticidal activity rating” value in assay [2] is recorded as “B”. Further, in assay [3], the “M. Bean Beetle” value was “A”. Also, the “S. Armyworm, pesticidal activity rating” value in assay [4] is on record as “A”. For the same molecule, in assay [5], the “Aphid, pesticidal activity rating” value is on record as “A”. Further, the “Mite, pesticidal activity rating” value in assay [6] is “C”.

`CC1OCSC1=NOC(=O)N(C)SSC(C)(C)C` (stereo not drawn): the “Nematodes … (galling)” value in assay [1] was found to be 1. For the same molecule, the “H. Fly, pesticidal activity rating” value in assay [2] is on record as “A”. Further, in assay [3], the “M. Bean Beetle” value is “A”. Moreover, the “S. Armyworm, pesticidal activity rating” value in assay [4] is listed as “A”. Besides, the “Aphid, pesticidal activity rating” value in assay [5] is “A”. The “Mite, pesticidal activity rating” value in assay [6] is listed as “A”.

`Cc1ccc(SSN(C)C(=O)ON=C2SCOC2C)cc1` (stereo not drawn): the “Nematodes … (galling)” value in assay [1] worked out at 1. For the same molecule, in assay [2], the “H. Fly, pesticidal activity rating” value is “A”. In addition, in assay [3], the “M. Bean Beetle” value is given as “A”. Moreover, the “S. Armyworm, pesticidal activity rating” value in assay [4] was “A”. Further, the “Aphid, pesticidal activity rating” value in assay [5] was “A”. Further, the “Mite, pesticidal activity rating” value in assay [6] is “A”.

With `CC1OCSC1=NOC(=O)N(C)SSc1ccccc1` (stereo not drawn), the “Nematodes … (galling)” value in assay [1] is 2. In addition, the “H. Fly, pesticidal activity rating” value in assay [2] is “A”. Also, the “M. Bean Beetle” value in assay [3] was “A”. Also, in assay [4], the “S. Armyworm, pesticidal activity rating” value was “A”. Further, the “Aphid, pesticidal activity rating” value in assay [5] was “A”. For the same molecule, the “Mite, pesticidal activity rating” value in assay [6] is on record as “A”.
